The source of these data is patent US10959981B2, “Composition for preventing or treating climacteric symptoms comprising soybean extract comprising coumestrol as an active ingredient” (AMOREPACIFIC CORPORATION, priority 2014, dated 2021).

In experiment [1] the test system is climacteric mouse models induced by oophorectomy. In words: Body weight change of oophorectomy-induced climacteric mice over 14 weeks. The format is in vivo. As to conditions: oophorectomized hairless mice; feed for 14 weeks; extract 500 mg/kg, coumestrol 0.5 mg/kg; FIG. 1. How it is done: Female hairless mice weighing 26-27 g were used as experimental animals. The experimental animals were bred under a condition of 23±1° C., 40-60% humidity and 12-hour light/dark cycles. Basic feed and drinking water were provided ad libitum. On the previous day before blood taking, drinking water was provided only. Oophorectomy was conducted aseptically after anesthetizing 15-week-old hairless mice and disinfecting with 70% ethanol. After incising skin tissue about 2-3 cm along the spinal cord below one lateral dorsal part, the muscle and peritoneum at the part where an ovary is located were incised by 1.5 cm to expose the ovary. After removing the ovary, the peritoneum, muscle and skin were sutured using silk suture. The ovary at the opposite side was also removed by the same method. For a control group, a sham operation of incising the muscle and peritoneum but suturing without removal of the ovary was conducted. After the surgical operation, the mice were allowed to recover for a week. […] The administration dosage for the coumestrol administration group was determined such that the amount of coumestrol in the germinated and fermented bean was the same as that of the coumestrol 0.5 mg/kg administration group (content of coumestrol in the germinated and fermented bean extract=0.1%; 500 mg/kg×0.1%=0.5 mg/kg). […]

Experiment [2] has the same test system. In words: Bone density by dual-energy X-ray absorptiometry in oophorectomized mice. As to conditions: oophorectomized hairless mice, 30 weeks old; feed for 14 weeks; extract 500 mg/kg, coumestrol 0.5 mg/kg; control group 0.1975, oophorectomy group 0.1821. It is filed as in vivo. How it is done: (§1) Female hairless mice weighing 26-27 g were used as experimental animals. The experimental animals were bred under a condition of 23±1° C., 40-60% humidity and 12-hour light/dark cycles. Basic feed and drinking water were provided ad libitum. On the previous day before blood taking, drinking water was provided only.
Oophorectomy was conducted aseptically after anesthetizing 15-week-old hairless mice and disinfecting with 70% ethanol. After incising skin tissue about 2-3 cm along the spinal cord below one lateral dorsal part, the muscle and peritoneum at the part where an ovary is located were incised by 1.5 cm to expose the ovary. After removing the ovary, the peritoneum, muscle and skin were sutured using silk suture. The ovary at the opposite side was also removed by the same method. For a control group, a sham operation of incising the muscle and peritoneum but suturing without removal of the ovary was conducted. […]
(§2) The experimental animals were divided into the control group (sham operation group) and an oophorectomy group. […] The administration dosage for the coumestrol administration group was determined such that the amount of coumestrol in the germinated and fermented bean was the same as that of the coumestrol 0.5 mg/kg administration group (content of coumestrol in the germinated and fermented bean extract=0.1%; 500 mg/kg×0.1%=0.5 mg/kg). […]

The test system is the same in experiment [3]. Kind of experiment: Skin thickness measured with calipers in oophorectomized mice. The format is in vivo. The following applies: oophorectomized hairless mice, 30 weeks old; extract 500 mg/kg, coumestrol 0.5 mg/kg in feed for 14 weeks; FIG. 2. The protocol:
as §1
Oophorectomy was conducted aseptically after anesthetizing 15-week-old hairless mice and disinfecting with 70% ethanol. After incising skin tissue about 2-3 cm along the spinal cord below one lateral dorsal part, the muscle and peritoneum at the part where an ovary is located were incised by 1.5 cm to expose the ovary. After removing the ovary, the peritoneum, muscle and skin were sutured using silk suture. The ovary at the opposite side was also removed by the same method. […]
as §2
Skin thickness was measured for the same test group (30 weeks old) as that in Test Example 1 using calipers (HEPT, Cjina).

In the next experiment the test system is MMP-1. In words: MMP-1 expression in UV-irradiated 3D artificial skin. The format is cell-based. As to conditions: 20 mJ UV, 0.1 ppm coumestrol or 100 ppm extract, relative to the non-UV-irradiated group as 100, UV-irradiated group 142.4%. How it is done: (§3) It is known that the skin in the climacteric period is vulnerable to skin irritation such as UV because of decreased skin thickness. 3D artificial skin was prepared and the effect of the germinated and fermented bean extract on the skin was tested after UV irradiation.
(§4) A matrix was prepared by mixing 2.64×10^5 fibroblasts in a collagen solution. After seeding 5×10^6 keratinocytes thereon, differentiation into artificial skin was induced by treating with 1.2 mM calcium. 2 weeks later, after irradiating 20 mJ UV on the cells and treating with 0.1 ppm coumestrol or 100 ppm germinated and fermented bean extract, the culture medium was recovered and the expression levels of MMP-1 and procollagen were measured in the same manner as in Test Example 5. The result is given in Table 2 relative to the non-UV-irradiated group as 100.

The next experiment has as its system procollagen. In words: Procollagen expression in UV-irradiated 3D artificial skin. It is filed as cell-based. As to conditions: 20 mJ UV, 0.1 ppm coumestrol or 100 ppm extract, relative to the non-UV-irradiated group as 100, UV-irradiated group 68.7%. How it is done:
as §3, §4

As for `O=c1oc2cc(O)ccc2c2oc3cc(O)ccc3c12` [coumestrol], the weight gain result in experiment [1] was “significantly less than that of the oophorectomy group”. This compound registered a Bone density in experiment [2] of 0.1902 g/cm^2. Besides, in experiment [3], the skin thickness result is reported as “the same as that of the oophorectomy group”. In addition, the MMP-1 with MMP-1 amounted to 122.8%. In the experiment with procollagen, this compound yielded a Procollagen of 82.4%.
